Test system: HUVEC/MSC spheroids viability
Experiment: Human HUVEC/MSC cell line growth inhibition [KRAS2];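 as to viability, T/C: percent of DMSO vehicle control luminescence so 100% = untreated viability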
Settings: for IC50: curve of first compound; for viability, T/C: stronger effect = lower value
Outline: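 The concentration series started at or near clinical Cmax (10 microM if not known) and fell in half-log increments, alone or in combination. Cells were stromal-only spheroids of pooled-donor HUVEC and hMSC (passage </=5), with different drug plates and layout from the tumor spheroid screens.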

[1] = second compound 0.0316 µM, first compound 0.0316 µM
[2] = second compound 0.0316 µM, first compound 0.1 µM
[3] = second compound 0.1 µM, first compound 0.0316 µM
[4] = second compound 0.1 µM, first compound 0.1 µM
[5] = second compound 0.316 µM, first compound 0.0316 µM
[6] = second compound 0.316 µM, first compound 0.1 µM
[7] = second compound 1 µM, first compound 0.0316 µM
[8] = second compound 1 µM, first compound 0.1 µM
[9] = second compound 3.16 µM, first compound 0.0316 µM
[10] = second compound 3.16 µM, first compound 0.1 µM
[11] = second compound 10 µM, first compound 0.0316 µM
[12] = second compound 10 µM, first compound 0.1 µM

In the case of `CC(=O)OC12COC1CC(O)C1(C)C(=O)C(O)C3=C(C)C(OC(=O)C(O)C(NC(=O)OC(C)(C)C)c4ccccc4)CC(O)(C(OC(=O)c4ccccc4)C21)C3(C)C` (stereo unspecified) + C=CC(=O)N1CCN(c2nc(OCC3CCCN3C)nc3c2CCN(c2cccc4cccc(C)c24)C3)CC1CC#N, the IC50 (second compound 0.00949 µM) is reported as less than 9.49 nM, the IC50 (second compound 0.03 µM) is reported as less than 9.49 nM and the IC50 (second compound 0.0949 µM) is reported as less than 9.49 nM. The IC50 (second compound 0.3 µM) was less than 9.49 nM, the IC50 (second compound 0.949 µM) was less than 9.49 nM and the IC50 (second compound 3 µM) was greater than 3000 nM. For the same molecule, the viability, T/C (second compound 0.00949 µM, first compound 0.00949 µM) was 48.9%, the viability, T/C (second compound 0.00949 µM, first compound 0.03 µM) was 42.7% and the viability, T/C (second compound 0.00949 µM, first compound 0.0949 µM) was 47.8%. It also gave a viability, T/C (second compound 0.00949 µM, first compound 0.3 µM) of 47%, a viability, T/C (second compound 0.00949 µM, first compound 0.949 µM) of 47.8% and a viability, T/C (second compound 0.00949 µM, first compound 3 µM) of 58%. It also gave a viability, T/C (second compound 0.03 µM, first compound 0.00949 µM) of 44.7%, a viability, T/C (second compound 0.03 µM, first compound 0.03 µM) of 40.9% and a viability, T/C (second compound 0.03 µM, first compound 0.0949 µM) of 38%. The viability, T/C (second compound 0.03 µM, first compound 0.3 µM) was 48.1%, the viability, T/C (second compound 0.03 µM, first compound 0.949 µM) was 47.1% and the viability, T/C (second compound 0.03 µM, first compound 3 µM) was 49.4%. The viability, T/C (second compound 0.0949 µM, first compound 0.00949 µM) was 44.3%, the viability, T/C (second compound 0.0949 µM, first compound 0.03 µM) was 42.1% and the viability, T/C (second compound 0.0949 µM, first compound 0.0949 µM) was 41.6%. The viability, T/C (second compound 0.0949 µM, first compound 0.3 µM) was 40.4%, the viability, T/C (second compound 0.0949 µM, first compound 0.949 µM) was 45.1% and the viability, T/C (second compound 0.0949 µM, first compound 3 µM) was 48.3%. It also gave a viability, T/C (second compound 0.3 µM, first compound 0.00949 µM) of 40.4%, a viability, T/C (second compound 0.3 µM, first compound 0.03 µM) of 49.7% and a viability, T/C (second compound 0.3 µM, first compound 0.0949 µM) of 45%. The viability, T/C (second compound 0.3 µM, first compound 0.3 µM) was 34.3%, the viability, T/C (second compound 0.3 µM, first compound 0.949 µM) was 48.1% and the viability, T/C (second compound 0.3 µM, first compound 3 µM) was 55%. For the same molecule, the viability, T/C (second compound 0.949 µM, first compound 0.00949 µM) was 44.7%, the viability, T/C (second compound 0.949 µM, first compound 0.03 µM) was 48.3% and the viability, T/C (second compound 0.949 µM, first compound 0.0949 µM) was 50.5%. It also gave a viability, T/C (second compound 0.949 µM, first compound 0.3 µM) of 44.5%, a viability, T/C (second compound 0.949 µM, first compound 0.949 µM) of 63.9% and a viability, T/C (second compound 0.949 µM, first compound 3 µM) of 51.5%. It also gave a viability, T/C (second compound 3 µM, first compound 0.00949 µM) of 82.6%, a viability, T/C (second compound 3 µM, first compound 0.03 µM) of 76.2% and a viability, T/C (second compound 3 µM, first compound 0.0949 µM) of 75.6%. The viability, T/C (second compound 3 µM, first compound 0.3 µM) was 62.6%, the viability, T/C (second compound 3 µM, first compound 0.949 µM) was 67.5% and the viability, T/C (second compound 3 µM, first compound 3 µM) was 90.5%.

Molecule `CC(C)NCC(C(=O)N1CCN(c2ncnc3c2C(C)CC3O)CC1)c1ccc(Cl)cc1` (stereo unspecified) + CNCc1ccccc1-c1csc(C(C)Nc2nc(C)nc3cc(OC)c(OC)cc23)c1 has an IC50 (second compound 0.0316 µM) greater than 10000 nM, an IC50 (second compound 0.1 µM) greater than 10000 nM and an IC50 (second compound 0.316 µM) greater than 10000 nM. It also gave an IC50 (second compound 1 µM) greater than 10000 nM, an IC50 (second compound 3.16 µM) greater than 10000 nM and an IC50 (second compound 10 µM) of less than 31.6 nM. For the same molecule, the viability, T/C [1] was 95.5%, the viability, T/C [2] was 108% and the viability, T/C (second compound 0.0316 µM, first compound 0.316 µM) was 98.5%. For the same molecule, the viability, T/C (second compound 0.0316 µM, first compound 1 µM) was 70.2%, the viability, T/C (second compound 0.0316 µM, first compound 3.16 µM) was 69% and the viability, T/C (second compound 0.0316 µM, first compound 10 µM) was 64.2%. It also gave a viability, T/C [3] of 94.8%, a viability, T/C [4] of 97.8% and a viability, T/C (second compound 0.1 µM, first compound 0.316 µM) of 75.6%. The viability, T/C (second compound 0.1 µM, first compound 1 µM) was 70.4%, the viability, T/C (second compound 0.1 µM, first compound 3.16 µM) was 58.1% and the viability, T/C (second compound 0.1 µM, first compound 10 µM) was 54.1%. For the same molecule, the viability, T/C [5] was 82.2%, the viability, T/C [6] was 106% and the viability, T/C (second compound 0.316 µM, first compound 0.316 µM) was 83.3%. The viability, T/C (second compound 0.316 µM, first compound 1 µM) was 73.5%, the viability, T/C (second compound 0.316 µM, first compound 3.16 µM) was 56.2% and the viability, T/C (second compound 0.316 µM, first compound 10 µM) was 50.8%. The viability, T/C [7] was 84.6%, the viability, T/C [8] was 106% and the viability, T/C (second compound 1 µM, first compound 0.316 µM) was 103%. It also gave a viability, T/C (second compound 1 µM, first compound 1 µM) of 71.3%, a viability, T/C (second compound 1 µM, first compound 3.16 µM) of 56.5% and a viability, T/C (second compound 1 µM, first compound 10 µM) of 51.6%. For the same molecule, the viability, T/C [9] was 108%, the viability, T/C [10] was 93.2% and the viability, T/C (second compound 3.16 µM, first compound 0.316 µM) was 89.4%. It also gave a viability, T/C (second compound 3.16 µM, first compound 1 µM) of 79.5%, a viability, T/C (second compound 3.16 µM, first compound 3.16 µM) of 62.5% and a viability, T/C (second compound 3.16 µM, first compound 10 µM) of 57.7%. For the same molecule, the viability, T/C [11] was 0.38%, the viability, T/C [12] was 0.44% and the viability, T/C (second compound 10 µM, first compound 0.316 µM) was 0.45%. For the same molecule, the viability, T/C (second compound 10 µM, first compound 1 µM) was 0.42%, the viability, T/C (second compound 10 µM, first compound 3.16 µM) was 0.39% and the viability, T/C (second compound 10 µM, first compound 10 µM) was 0.26%.

`CN(C)C/C=C/C(=O)Nc1cc2c(Nc3ccc(F)c(Cl)c3)ncnc2cc1O[C@H]1CCOC1` + C=CC(=O)N1CCN(c2nc(=O)n(-c3c(C)ccnc3C(C)C)c3nc(-c4c(O)cccc4F)c(F)cc23)C(C)C1 was tested, and the IC50 (second compound 0.0316 µM) was greater than 100 nM, the IC50 (second compound 0.1 µM) was greater than 100 nM and the IC50 (second compound 0.316 µM) was greater than 100 nM. For the same molecule, the IC50 (second compound 1 µM) was greater than 100 nM, the IC50 (second compound 3.16 µM) was greater than 100 nM and the IC50 (second compound 10 µM) was greater than 100 nM. It also gave a viability, T/C (second compound 0.0316 µM, first compound 0.000316 µM) of 98.4%, a viability, T/C (second compound 0.0316 µM, first compound 0.001 µM) of 115% and a viability, T/C (second compound 0.0316 µM, first compound 0.00316 µM) of 97%. For the same molecule, the viability, T/C (second compound 0.0316 µM, first compound 0.01 µM) was 84.3%, the viability, T/C [1] was 91.4% and the viability, T/C [2] was 88.9%. For the same molecule, the viability, T/C (second compound 0.1 µM, first compound 0.000316 µM) was 116%, the viability, T/C (second compound 0.1 µM, first compound 0.001 µM) was 107% and the viability, T/C (second compound 0.1 µM, first compound 0.00316 µM) was 85.7%. It also gave a viability, T/C (second compound 0.1 µM, first compound 0.01 µM) of 80.1%, a viability, T/C [3] of 111% and a viability, T/C [4] of 81%. The viability, T/C (second compound 0.316 µM, first compound 0.000316 µM) was 108%, the viability, T/C (second compound 0.316 µM, first compound 0.001 µM) was 109% and the viability, T/C (second compound 0.316 µM, first compound 0.00316 µM) was 87.3%. For the same molecule, the viability, T/C (second compound 0.316 µM, first compound 0.01 µM) was 92.8%, the viability, T/C [5] was 96.8% and the viability, T/C [6] was 100%. For the same molecule, the viability, T/C (second compound 1 µM, first compound 0.000316 µM) was 107%, the viability, T/C (second compound 1 µM, first compound 0.001 µM) was 119% and the viability, T/C (second compound 1 µM, first compound 0.00316 µM) was 105%. For the same molecule, the viability, T/C (second compound 1 µM, first compound 0.01 µM) was 124%, the viability, T/C [7] was 112% and the viability, T/C [8] was 110%. The viability, T/C (second compound 3.16 µM, first compound 0.000316 µM) was 107%, the viability, T/C (second compound 3.16 µM, first compound 0.001 µM) was 129% and the viability, T/C (second compound 3.16 µM, first compound 0.00316 µM) was 114%. It also gave a viability, T/C (second compound 3.16 µM, first compound 0.01 µM) of 118%, a viability, T/C [9] of 113% and a viability, T/C [10] of 131%. The viability, T/C (second compound 10 µM, first compound 0.000316 µM) was 128%, the viability, T/C (second compound 10 µM, first compound 0.001 µM) was 122% and the viability, T/C (second compound 10 µM, first compound 0.00316 µM) was 145%. It also gave a viability, T/C (second compound 10 µM, first compound 0.01 µM) of 97.3%, a viability, T/C [11] of 124% and a viability, T/C [12] of 106%.
